Measurements taken from PubChem BioAssay AID330 (DTP/NCI, 2004).
Where “and” joins values, the source holds several entries; their conditions need not be identical. Equal values may be shown once. Inconclusive results and toxic doses are left out. How the source made its calls: active means survival T/C of 150% or more; inactive means T/C below 125% in these data.

Test system: P388 leukemia ip, CD2F1 mice, survival T/C
Experiment: NCI In Vivo Anticancer Drug Screen. Data for tumor model P388 Leukemia (intraperitoneal) in CD2F1 (CDF1) mice
Conditions: endpoint: median survival time, higher = longer survival
Procedure, shortened: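 Mice carrying the transplanted tumor received test compound or vehicle. Survival was recorded in each group, and the value is the treated-group measurement divided by that of the vehicle-treated control group.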

[1] = dose: 50.0 mg/kg/injection, schedule: Q01DX005 (ip), vehicle: Klucel (hydroxypropylcellulose) (HPC)
[2] = dose: 100.0 mg/kg/injection, schedule: Q01DX005 (ip), vehicle: Klucel (hydroxypropylcellulose) (HPC)
[3] = dose: 200.0 mg/kg/injection, schedule: Q01DX005 (ip), vehicle: Klucel (hydroxypropylcellulose) (HPC)
[4] = dose: 50.0 mg/kg/injection, schedule: Q01DX009 (ip), vehicle: saline with Tween-80
[5] = dose: 50.0 mg/kg/injection, schedule: Q01DX005 (ip), vehicle: saline with Tween-80
[6] = dose: 100.0 mg/kg/injection, schedule: Q01DX005 (ip), vehicle: saline with Tween-80
[7] = dose: 200.0 mg/kg/injection, schedule: Q01DX005 (ip), vehicle: saline with Tween-80
[8] = dose: 50.0 mg/kg/injection, schedule: Q01DX009 (ip), vehicle: Klucel (hydroxypropylcellulose) (HPC)
[9] = dose: 100.0 mg/kg/injection, schedule: Q01DX009 (ip), vehicle: Klucel (hydroxypropylcellulose) (HPC)
[10] = dose: 200.0 mg/kg/injection, schedule: Q01DX009 (ip), vehicle: Klucel (hydroxypropylcellulose) (HPC)
[11] = dose: 6.25 mg/kg/injection, schedule: Q01DX005 (ip), vehicle: saline with Tween-80
[12] = dose: 12.5 mg/kg/injection, schedule: Q01DX005 (ip), vehicle: saline with Tween-80
[13] = dose: 25.0 mg/kg/injection, schedule: Q01DX005 (ip), vehicle: saline with Tween-80
[14] = dose: 25.0 mg/kg/injection, schedule: Q01DX009 (ip), vehicle: saline with Tween-80
[15] = dose: 50.0 mg/kg/injection, schedule: Q01DX009 (ip), vehicle: saline
[16] = dose: 100.0 mg/kg/injection, schedule: Q04DX002 (ip), vehicle: saline with Tween-80

Measured: T/C

COc1cccc(C2OC3=C(Nc4ccc([N+](=O)[O-])cc4N3)C2=O)c1 (configuration not stated)
inactive: [1] 102 % of control | [2] 101 % of control | [3] 96 % of control

O=C1C=C[C@]2(C(=O)O)[C@@H]3C=C[C@@H](CC3)[C@H]12
inactive: dose: 100.0 mg/kg/injection, schedule: Q04DX003 (ip), vehicle: Klucel (hydroxypropylcellulose) (HPC) 96 % of control | dose: 200.0 mg/kg/injection, schedule: Q04DX003 (ip), vehicle: Klucel (hydroxypropylcellulose) (HPC) 100 % of control | dose: 400.0 mg/kg/injection, schedule: Q04DX003 (ip), vehicle: Klucel (hydroxypropylcellulose) (HPC) 90 % of control

CC1(C)C=C2OC(=O)CCC2(C)CC1 (configuration not stated)
inactive: dose: 50.0 mg/kg/injection, schedule: Q01DX001 (ip), vehicle: saline with Tween-80 95 % of control | dose: 100.0 mg/kg/injection, schedule: Q01DX001 (ip), vehicle: saline with Tween-80 118 % of control | dose: 200.0 mg/kg/injection, schedule: Q01DX001 (ip), vehicle: saline with Tween-80 90 % of control

c1cc(-c2nnc3ccccn23)c2c(-c3nnc4ccccn34)cccc2c1
inactive: [4] 100 % of control | dose: 100.0 mg/kg/injection, schedule: Q01DX009 (ip), vehicle: saline with Tween-80 97 % of control | dose: 200.0 mg/kg/injection, schedule: Q01DX009 (ip), vehicle: saline with Tween-80 97 % of control

CC1(C)C(=O)c2cc3ccccc3nc2-c2ccccc21
inactive: [5] 100 % of control | [6] 99 % of control | [7] 105 % of control

CN(C)C(C)(C#N)C(N)=O (configuration not stated)
inactive: dose: 1.56 mg/kg/injection, schedule: Q04DX003 (ip), vehicle: saline 103 % of control and 93 % of control | dose: 3.12 mg/kg/injection, schedule: Q04DX003 (ip), vehicle: saline 101 % of control | dose: 6.25 mg/kg/injection, schedule: Q04DX003 (ip), vehicle: saline 100 % of control and 96 % of control and 98 % of control

COc1ccc(CCN2C(=O)C(=O)N(c3ccc(Cl)c(Cl)c3)C2=O)cc1OC
inactive: [8] 102 % of control | [9] 97 % of control | [10] 103 % of control

CN(C)C(C#CCO)c1ccccc1 (configuration not stated)
inactive: dose: 60.0 mg/kg/injection, schedule: Q01DX005 (ip), vehicle: saline 100 % of control | dose: 120.0 mg/kg/injection, schedule: Q01DX005 (ip), vehicle: saline 103 % of control | dose: 240.0 mg/kg/injection, schedule: Q01DX005 (ip), vehicle: saline 101 % of control

CN(C)/N=N/c1ccn[nH]1
inactive: dose: 3.12 mg/kg/injection, schedule: Q01DX005 (ip), vehicle: saline with Tween-80 121 % of control | dose: 3.12 mg/kg/injection, schedule: Q01DX009 (ip), vehicle: saline with Tween-80 104 % of control | dose: 3.13 mg/kg/injection, schedule: Q01DX009 (ip), vehicle: saline 97 % of control | [11] 121 % of control | dose: 6.25 mg/kg/injection, schedule: Q01DX009 (ip), vehicle: saline with Tween-80 107 % of control | dose: 6.25 mg/kg/injection, schedule: Q01DX009 (ip), vehicle: saline 87 % of control | [12] 118 % of control | dose: 12.5 mg/kg/injection, schedule: Q01DX009 (ip), vehicle: saline 92 % of control | [13] 121 % of control | [14] 121 % of control | dose: 25.0 mg/kg/injection, schedule: Q01DX009 (ip), vehicle: saline 113 % of control | [4] 122 % of control | [15] 101 % of control

CSc1nccc(=O)n1-c1ccc(C)cc1
inactive: [16] 102 % of control | dose: 200.0 mg/kg/injection, schedule: Q04DX002 (ip), vehicle: saline with Tween-80 102 % of control | dose: 400.0 mg/kg/injection, schedule: Q04DX002 (ip), vehicle: saline with Tween-80 98 % of control

Cc1ccccc1-n1c(-c2ccccc2)cs/c1=N\N=C1/CSC(=O)N1Cc1ccccc1
inactive: dose: 100.0 mg/kg/injection, schedule: Q01DX001 (ip), vehicle: Klucel (hydroxypropylcellulose) (HPC) 107 % of control | dose: 200.0 mg/kg/injection, schedule: Q01DX001 (ip), vehicle: Klucel (hydroxypropylcellulose) (HPC) 104 % of control | dose: 400.0 mg/kg/injection, schedule: Q01DX001 (ip), vehicle: Klucel (hydroxypropylcellulose) (HPC) 89 % of control

O=C(/C=C/c1cccc(Cl)c1)c1ccccc1
inactive: [8] 102 % of control | [9] 104 % of control | dose: 150.0 mg/kg/injection, schedule: Q01DX009 (ip), vehicle: Klucel (hydroxypropylcellulose) (HPC) 110 % of control | [10] 122 % of control

CCC(=O)[O][Sn]([CH3])([CH3])[O][Sn]([CH3])([CH3])[O]C(=O)CC
inactive: dose: 6.25 mg/kg/injection, schedule: Q01DX005 (ip), vehicle: saline 117 % of control | dose: 12.5 mg/kg/injection, schedule: Q01DX005 (ip), vehicle: saline 117 % of control and 118 % of control | dose: 25.0 mg/kg/injection, schedule: Q01DX005 (ip), vehicle: saline 120 % of control

CSc1ncc(C#N)c2nc(-c3ccccc3)nn12
inactive: [5] 97 % of control | [6] 94 % of control | [7] 88 % of control

Cc1c(O)ccc(N=O)c1O
inactive: [11] 98 % of control | [12] 94 % of control | [13] 90 % of control | [5] 93 % of control

CCOC(=O)COc1cc2c(cc1C(C)c1ccc(OCC)cc1)OCO2 (configuration not stated)
inactive: [1] 93 % of control | [2] 93 % of control | [3] 88 % of control

CSc1nc(NC2OC(CO)C(O)C(O)C2O)c(C=O)c(=O)[nH]1 (configuration not stated)
inactive: dose: 60.0 mg/kg/injection, schedule: Q01DX005 (ip), vehicle: saline with Tween-80 92 % of control | dose: 120.0 mg/kg/injection, schedule: Q01DX005 (ip), vehicle: saline with Tween-80 95 % of control | dose: 240.0 mg/kg/injection, schedule: Q01DX005 (ip), vehicle: saline with Tween-80 87 % of control

COc1ccc(-n2c(C)nc3ccccc3c2=O)cc1CN(CCCl)CCCl
inactive: dose: 25.0 mg/kg/injection, schedule: Q04DX002 (ip), vehicle: saline with Tween-80 97 % of control | dose: 50.0 mg/kg/injection, schedule: Q04DX002 (ip), vehicle: saline with Tween-80 109 % of control | [16] 100 % of control

CCOC(=O)C1(COS(=O)(=O)c2ccc(C)cc2)C(=O)Nc2ccccc21 (configuration not stated)
inactive: [8] 100 % of control | [9] 100 % of control | [10] 97 % of control

CC1(C)COCN1COCCCOCN1COCC1(C)C
inactive: dose: 12.5 mg/kg/injection, schedule: Q01DX009 (ip), vehicle: saline with Tween-80 102 % of control | [14] 120 % of control | dose: 150.0 mg/kg/injection, schedule: Q01DX009 (ip), vehicle: saline with Tween-80 118 % of control

COc1ccc2c(c1OC)CN1CCc3cc4c(cc3C1C2)OCO4 (configuration not stated)
inactive: [1] 105 % of control and 91 % of control | [2] 100 % of control and 94 % of control | [3] 96 % of control and 94 % of control

CC1=CC2OC3CC4OC(=O)/C=C/C=C/C(C(C)O)OCCC5(C)OC5C(=O)OCC2(CC1)C4(C)C31CO1 (configuration not stated)
inactive: dose: 1.25 mg/kg/injection, schedule: Q01DX005 (ip), vehicle: saline + alcohol 101 % of control | dose: 2.5 mg/kg/injection, schedule: Q01DX005 (ip), vehicle: saline + alcohol 118 % of control

O=C(c1ccc(F)cc1)C1CCN(CCCn2c(=O)[nH]c3ccccc32)CC1
inactive: [15] 100 % of control | dose: 100.0 mg/kg/injection, schedule: Q01DX009 (ip), vehicle: saline 101 % of control | dose: 200.0 mg/kg/injection, schedule: Q01DX009 (ip), vehicle: saline 100 % of control

CCOC(=O)C1CC(=O)c2ccccc2C1 (configuration not stated)
inactive: dose: 6.25 mg/kg/injection, schedule: Q01DX009 (ip), vehicle: distilled water + Tween-80 101 % of control | dose: 12.5 mg/kg/injection, schedule: Q01DX009 (ip), vehicle: distilled water + Tween-80 96 % of control | dose: 25.0 mg/kg/injection, schedule: Q01DX009 (ip), vehicle: distilled water + Tween-80 95 % of control | dose: 50.0 mg/kg/injection, schedule: Q01DX009 (ip), vehicle: distilled water + Tween-80 102 % of control | dose: 100.0 mg/kg/injection, schedule: Q01DX009 (ip), vehicle: distilled water + Tween-80 100 % of control | dose: 200.0 mg/kg/injection, schedule: Q01DX009 (ip), vehicle: distilled water + Tween-80 101 % of control | dose: 400.0 mg/kg/injection, schedule: Q01DX009 (ip), vehicle: distilled water + Tween-80 109 % of control
